US8501450B2, “Hepatitis C virus variants” (priority 2005, dated 2013)
“And” between values parts separate entries of the source, which are not always exact repeats. Equal values may be shown once.

Assays:
[1] = target: HCV NS3 protease T54A mutant (UniProt P27958, T1080A, species not given); conditions: enzyme IC50 vs genotype 1a HCV-H reference strain
[2] = target: HCV NS3 protease A156T mutant (UniProt P27958, A1182T, species not given); conditions: enzyme IC50 vs genotype 1a HCV-H reference strain
[3] = system: wild-type HCV replicon Con1-mADE cells; assay: microbe, parasite or virus in culture; conditions: Hepatitis C virus, 48 h, read-out: Replicon IC50
Description: (§1) The stable wild-type (mADE) and variant HCV sub-genomic replicon cell lines were generated using the T7 RNA runoff transcripts from the corresponding high efficiency Con1 replicon plasmids.
(§2) The stable wild-type and variant HCV sub-genomic replicon cell lines were generated using the 17 RNA runoff transcripts from the corresponding high efficiency Con1 replicon plasmids.

[4] = system: HCV replicon cells, NS3 R155T variant; conditions: for Fold change of replicon IC50: R155T IC50 divided by wild-type replicon IC50
Description: as §1, §2

[5] = system: wild-type HCV replicon Con1-mADE cells; conditions: for Fold change of replicon IC50: wild-type replicon relative to itself
Description: as §1, §2

[6] = system: HCV variant mixture in patient plasma; assay: Average phenotype for each patient; format: in vivo, patients; conditions: for Average Phenotype: individual subjects
Description: The genotypic analyses performed here allowed a detailed examination of the relative proportion of different resistant mutants within each patient. To better understand the level of phenotypic resistance conferred by these viral mixtures, exploratory analyses were done to obtain an average phenotype for each patient. The percent of virions with a given single or double mutation was multiplied by the average fold change in enzyme IC50 for that given mutant (Table 3), and then all values were added for each patient. […] An analysis correlating pharmacokinetic data with resistance patterns is currently underway.

[7] = system: HCV replicon cells, NS3 R155K variant
Description: as §1, §2

[8] = system: HCV replicon cells, NS3 R155M variant
Description: as §1, §2

[9] = patients that continued to decline, follow-up
[10] = plateau group of patients, Day 14
[11] = rebound group of patients, Day 14
[12] = rebound group of patients, follow-up

COc1ccc2c(O[C@@H]3C[C@H]4C(=O)N[C@]5(C(=O)O)C[C@H]5/C=C\CCCCC[C@H](NC(=O)OC5CCCC5)C(=O)N4C3)cc(-c3csc(NC(C)C)n3)nc2c1 [BILN 2061]
Fold change [1]: 2.3 fold | Fold change [2]: >183 fold

NC(=O)c1ncn([C@@H]2O[C@H](CO)[C@@H](O)[C@H]2O)n1 [Ribavirin, 1-beta-D-ribofuranosyl-1H-1,2,4-triazole-3-carboxamide]
IC50 [3]: 58 ± 18 µM | Fold change of replicon IC50 [4]: 0.6 ± 0.3 fold | Fold change of replicon IC50 [5]: 1.0 ± 0.3 fold

CCC[C@H](NC(=O)[C@@H]1[C@H]2CCC[C@H]2CN1C(=O)[C@@H](NC(=O)[C@@H](NC(=O)c1cnccn1)C1CCCCC1)C(C)(C)C)C(=O)C(=O)NC1CC1 [VX-950]
Average Phenotype ([6]; 450 mg, FU (7-10 days after ETR)): 28.94 and 3.13 and 8.65 and 1.14 and 0.83 and 29.43 and 14.81 | Average Phenotype ([6]; 750 mg, ETR (Day 14)): 466.14 and 466.00 | Average Phenotype ([6]; 750 mg, FU (7-10 days after ETR)): 9.33 and 45.74 and 126.48 and 9.65 and 3.17 and 4.92 and 0.00 | Average Phenotype ([6]; 1250 mg, ETR (Day 14)): 10.15 and 26.13 and 9.38 and 14.39 and 14.59 and 47.49 and 147.96 and 25.96 and 466.00 | Average Phenotype ([6]; 1250 mg, FU (7-10 days after ETR)): 9.39 and 26.03 and 10.65 and 12.33 and 15.28 and 15.38 and 7.93 and 1.87 and 30.97 | Average phenotype, mean value [6, 9]: 4 | Average phenotype, range [6, 9]: 0-10 | Average phenotype, mean value [6, 10]: 272 | Average phenotype, range [6, 10]: 26-466 | Average phenotype, mean value ([6]; plateau group of patients, follow-up): 32 | Average phenotype, mean value [6, 11]: 27 | Average phenotype, range [6, 11]: 6-70 | Average phenotype, mean value [6, 12]: 15 | Average phenotype, range [6, 12]: 3-29 | IC50 [3]: 0.485 ± 0.108 µM

IFN-α
Fold change of replicon IC50 ([7]; R155K IC50 divided by wild-type replicon IC50): 1.3 ± 1.1 fold | Replicon IC50 ([7]; R155K replicon, 48-h assay, mean ± SD of three experiments): 15.2 ± 12.3 U/ml | Fold change of replicon IC50 ([8]; R155M IC50 divided by wild-type replicon IC50): 0.4 ± 0.1 fold | Replicon IC50 ([8]; R155M replicon, 48-h assay, mean ± SD of three experiments): 4.9 ± 1.0 U/ml | Fold change of replicon IC50 [4]: 0.4 ± 0.3 fold | Replicon IC50 ([4]; R155T replicon, 48-h assay, mean ± SD of three experiments): 4.8 ± 3.3 U/ml | Fold change of replicon IC50 [5]: 1.0 ± 0.1 fold | Replicon IC50 ([5]; wild-type replicon, 48-h assay, mean ± SD of three experiments): 11.6 ± 1.1 U/ml
